melting point [°C]	SMILES
39 to 40	O=C(CCCCCCSc1ccccc1)c1ncco1 [Example 102, 1-(1,3-oxazol-2-yl)-7-(phenylsulfanyl)-1-heptanone]
55 to 56	O=C(CCCCCCS(=O)(=O)c1ccccc1)c1ncco1 [Example 103, 1-(1,3-oxazol-2-yl)-7-(phenylsulfonyl)-1-heptanone]
65 to 66	O=C(CCCCCCSc1ccc2ccccc2c1)c1ncco1 [Example 104, 7-(2-naphthylsulfanyl)-1-(1,3-oxazol-2-yl)-1-heptanone]
75 to 76	O=C(CCCCCCS(=O)(=O)c1ccc2ccccc2c1)c1ncco1 [Example 105, 7-(2-naphthylsulfonyl)-1-(1,3-oxazol-2-yl)-1-heptanone]
94 to 95	CNC(=O)C(=O)CCCCCCSc1ccc2ccccc2c1 [Example 106, N-methyl-8-(2-naphthylsulfanyl)-2-oxooctanamide]
108 to 109	CNC(=O)C(=O)CCCCCCS(=O)(=O)c1ccc2ccccc2c1 [Example 107, N-methyl-8-(2-naphthylsulfonyl)-2-oxooctanamide]
131 to 132	CNC(=O)C(=O)CCCCCCSc1ccc(-c2ccccc2)cc1 [Example 108, 8-((1,1′-biphenyl)-4-ylsulfanyl)-N-methyl-2-oxooctanamide]
153 to 156	O=C(NCCCCCCC(=O)c1ncco1)c1cc2ccccc2[nH]1 [Example 110, N-(7-(1 ,3-oxazol-2-yl)-7-oxoheptyl)-1H-indole-2-carboxamide]
176 to 179	O=C(NCCCCCC(=O)c1ncco1)c1cc2ccccc2[nH]1 [Example 111, N-(6-(1,3-oxazol-2-yl)-6-oxohexyl)-1H-indole-2-carboxamide]
110 to 111	CC(=O)C(=O)CCCCCCOc1ccc(-c2ccccc2)cc1 [Example 113, 9-((1,1′-biphenyl)-4-yloxy)-2,3-nonanedione]

Reference: patent publication US20020103192A1, “Inhibitors of histone deacetylase” (priority 2000, published 2002)
